Usually inhibition stands for the percentage by which the read-out fell short of the control.

Results on seven molecules are retold here after patent US8329705B2, “Substituted triazolo-pyrazine compounds” (ArQule, Inc., priority 2009, dated 2012).

Experiment [1] concerns the target T1, FGFR2 (N549H) (Homo sapiens, UniProt P21802, N549H).
T1 construct: purchased Millipore 14-742
Nature of the experiment: FGFR2 kinase activity assay (fluorescent ELISA). Type of experiment: biochemical. The conditions noted are these: 30 μM compound. The protocol: A fluorescent ELISA assay was developed to identify and characterize inhibitors of FGFR2 kinase. This heterogeneous assay utilized a biotinylated peptide with a tyrosine motif as a substrate and an anti-phospho-tyrosine antibody to measure phosphorylation of the substrate. The reaction was initiated by adding a test compound, 37 uM Pyk2 substrate (Midwest Biotech, cat. #MBT2383), 12.5 uM ATP (Roche, cat. #11 140 965 001), and 0.5 uM FGFR2 enzyme (Millipore, cat. #14-742) sequentially to a non-binding polypropylene V-well plate. All reagents were in assay buffer consisting of: 50 mM Tris-HCL, 0.02 mg/mL BSA, 10 mM MgCl2, 0.1 mM Na3VO4, 1 mM EGTA, […], 0.01% NP-40, 2 mM DTT, 10% Glycerol. The reaction was incubated for 60 minutes. As the reaction proceeded, FGFR2 phosphorylated tyrosines in the peptide. The reaction mixture was then moved to a blocked streptavidin coated Nunc Maxisorb plate (coated with 100 ng streptavidin from Pierce (cat #15-124) per well) allowing for the capture of the biotinylated peptide. Peptide was captured for 30 minutes at room temperature, the phosphorylation of peptide continues during this phase. The reaction was stopped by washing the Streptavidin plate 6 times with TBST. Phosphorylated peptide was detected by adding anti-phospho tyrosine antibody (purchased from Cell Signaling, cat. #9411, diluted 1:3000), unbound antibody was removed by washing 6 times with TBST. Secondary detection was performed using Alkaline Phosphatase tagged goat anti-mouse antibody (purchased from Pierce, cat. #31320, diluted 1:4000) for one hour. Unbound secondary antibody was removed by washing 6 times with TBST.
The fluorescent readout was initiated by the addition of Promega Attophos substrate (purchased from Promega; Kit catalog number: S1000, dilution=6 mg/10 mL), which when dephosphorylated by Alkaline phosphatase emitted a fluorescent signal of […] when excited by a signal […]. This reading was done on the Perkin Elmer Envision system. […] The signal was directly proportional to the activity of FGFR2 and compound inhibition of FGFR2 was monitored by a decrease in signal.
Background: ELISA stands for enzyme-linked immunosorbent assay.

Experiment [2] deals with MDA-MB-231 cancer cells. Description: MTS assay, MDA-MB-231 cells. It is filed as cell-based. Details: concentration or dose not given beside the values. The method, then: (§1) Cells were maintained at 37° C., 5% CO2 in DMEM media supplemented with 1% fetal bovine serum, penicillin/streptomycin and fungizone (Invitrogen). Cells were seeded into 96-well tissue culture plates at 3000 per well and cultured at 37° C. for 18 hours. Test compounds were dissolved and diluted to 300× in DMSO then diluted 1:40 in DMEM. Cells were incubated with test compounds for 72 hours followed by incubation with tetrazolium compound (3-(4,5-dimethylthiazol-2-yl)-5-(3-carboxymethoxyphenyl)-2-(4-sulfophenyl)-2H-tetrazolium, inner salt; MTS) and the electron coupling reagent, phenazine methosulfate (PMS) for 4 hours. […] The ability of compounds to inhibit cell growth in this assay is correlated with the reduction of dehydrogenase enzyme activity found in metabolically active cells. The measurement of the absorbance of the formazan was assessed using a Victor (Perkin Elmer) microplate reader at 492 nm. The calculated IC50 value is the concentration of the test compound that causes a 50% decrease in the absorbance. Percent inhibition by representative compounds of the present invention in MDA-MB231 and DLD-1 cancer cells is shown in Table 4.
(In general: Tetrazolium assays rely on reduction of a dye to a coloured formazan, in cell work by metabolically active cells.)

The test system of experiment [3] is DLD-1 cancer cells. Nature of the experiment: MTS assay, DLD-1 cells. It is filed as cell-based. Details: concentration or dose not given beside the values. The protocol: as §1

T1 sequence (P21802 22-821 N549H): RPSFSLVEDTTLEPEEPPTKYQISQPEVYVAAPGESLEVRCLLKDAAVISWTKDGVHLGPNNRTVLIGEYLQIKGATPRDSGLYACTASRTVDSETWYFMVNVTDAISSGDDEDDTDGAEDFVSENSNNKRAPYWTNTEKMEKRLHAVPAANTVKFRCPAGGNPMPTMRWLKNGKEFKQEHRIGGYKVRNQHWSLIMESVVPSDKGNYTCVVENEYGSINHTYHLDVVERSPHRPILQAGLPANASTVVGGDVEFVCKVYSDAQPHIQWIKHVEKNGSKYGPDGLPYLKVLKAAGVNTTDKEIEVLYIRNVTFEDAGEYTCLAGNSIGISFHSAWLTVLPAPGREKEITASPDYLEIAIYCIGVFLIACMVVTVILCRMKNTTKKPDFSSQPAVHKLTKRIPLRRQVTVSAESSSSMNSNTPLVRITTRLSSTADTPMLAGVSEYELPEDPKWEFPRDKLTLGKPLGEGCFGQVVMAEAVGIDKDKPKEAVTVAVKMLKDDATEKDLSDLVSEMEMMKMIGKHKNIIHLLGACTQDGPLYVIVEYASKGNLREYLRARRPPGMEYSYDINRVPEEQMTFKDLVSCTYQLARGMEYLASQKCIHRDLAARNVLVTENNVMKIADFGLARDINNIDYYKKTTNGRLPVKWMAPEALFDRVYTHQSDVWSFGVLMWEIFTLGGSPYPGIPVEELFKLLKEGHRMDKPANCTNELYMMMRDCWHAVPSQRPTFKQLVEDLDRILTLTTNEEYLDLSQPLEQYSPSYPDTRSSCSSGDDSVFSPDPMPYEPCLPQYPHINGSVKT

Molecule `CC(C)OC(=O)Nc1nnc2c(N3CCC(n4c(=O)[nH]c5cc(Cl)ccc54)CC3)nccn12` [Compound 82, isopropyl {8-[4-(5-chloro-2-oxo-2,3-dihydro-1H-benzimidazol-1-yl)piperidin-1-yl][1,2,4]triazolo[4,3-a]pyrazin-3-yl}carbamate] had an inhibition at 30 µM in experiment [1] of 65.2%. In addition, the “MDA-MB-231, MTS, 72 hours (% inhibition)” value in experiment [2] turned out to be 92%. The “DLD-1, MTS, 72 hours (% Inhibition)” value in experiment [3] is listed as 97%.

The molecule `CC(C)OC(=O)Nc1nnc2c(NCc3cccc(F)c3)nccn12` [Compound 86, isopropyl {8-[(3-fluorobenzyl)amino][1,2,4]triazolo[4,3-a]pyrazin-3-yl}carbamate] gave an inhibition at 30 µM in experiment [1] of 88.8%. In addition, the “MDA-MB-231, MTS, 72 hours (% inhibition)” value in experiment [2] was 98%. Further, the “DLD-1, MTS, 72 hours (% Inhibition)” value in experiment [3] came to 97%.

In experiment [1], `Cc1ccc(CCNc2nccn3c(N)nnc23)cc1` [Compound 90, N^8-[2-(4-methylphenyl)ethyl][1,2,4]triazolo[4,3-a]pyrazine-3,8-diamine] came in with an inhibition at 30 µM of 60.8%. For the same molecule, the “MDA-MB-231, MTS, 72 hours (% inhibition)” value in experiment [2] came to 81%. For the same molecule, the “DLD-1, MTS, 72 hours (% Inhibition)” value in experiment [3] stood at 89%.

In turn, `Nc1nnc2c(NCCc3ccc(Oc4ccccc4)cc3)nccn12` [Compound 93, N^8-[2-(4-phenoxyphenyl)ethyl][1,2,4]triazolo[4,3-a]pyrazine-3,8-diamine] came in with an inhibition at 30 µM in experiment [1] of 82.9%. Further, in experiment [2], the “MDA-MB-231, MTS, 72 hours (% inhibition)” value was found to be 99%. Besides, the “DLD-1, MTS, 72 hours (% Inhibition)” value in experiment [3] was 98%.

With `Nc1nnc2c(NCCc3ccc(Cl)cc3)nccn12` [Compound 115, N^8-[2-(4-chlorophenyl)ethyl][1,2,4]triazolo[4,3-a]pyrazine-3,8-diamine], the inhibition at 30 µM in experiment [1] was found to be 71.6%. Besides, the “MDA-MB-231, MTS, 72 hours (% inhibition)” value in experiment [2] is 99%. For the same molecule, the “DLD-1, MTS, 72 hours (% Inhibition)” value in experiment [3] came to 98%.

`Cc1ccccc1Nc1nccn2c(N)nnc12` [Compound 157, N^8-(2-methylphenyl)[1,2,4]triazolo[4,3-a]pyrazine-3,8-diamine] yielded an inhibition at 30 µM in experiment [1] of 54.6%. Besides, the “MDA-MB-231, MTS, 72 hours (% inhibition)” value in experiment [2] is given as 98%. In addition, in experiment [3], the “DLD-1, MTS, 72 hours (% Inhibition)” value turned out to be 97%.

`Nc1nnc2c(Nc3cc(Cl)ccc3Cl)nccn12` [Compound 160, N^8-(2,5-dichlorophenyl)[1,2,4]triazolo[4,3-a]pyrazine-3,8-diamine] gave an inhibition at 30 µM in experiment [1] of 68.6%. For the same molecule, the “MDA-MB-231, MTS, 72 hours (% inhibition)” value in experiment [2] stood at 81%. Further, in experiment [3], the “DLD-1, MTS, 72 hours (% Inhibition)” value is reported as 53%.
